Measured values from PubChem BioAssay AID977605 (Broad Institute, 2014).
The source made the active and inactive calls.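 Rule for the calls: active = fitted curve reaches 40% activation below the top valid tested dose, in every test run; inconclusive = test runs disagree on the call; inactive = the rest, including effects opposite to the expected direction.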

System: HUVEC E-selectin immunostaining, imaging, 16 h
Test: endothelial E-selectin upregulation by compounds – imaging, HUVEC, cherry-picked samples, dose response (AID 977605);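 note: signal is the share of imaged cells scored positive for E-selectin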
Settings: not given

With COc1ccc(S(=O)(=O)N(C)C[C@@H]2OCCCC[C@H](C)Oc3ccc(NC(=O)Nc4cccc5ccccc45)cc3C(=O)N([C@H](C)CO)C[C@H]2C)cc1 as the compound, how does the AC40 read?
Its AC40 is 17.7 µM.

Which AC40 does the source give for COc1cccc(CNC(=O)c2cc3c(c(-c4cccc(-c5ccc(C#N)cc5)c4)n2)[C@H](CCO)N([S@@](=O)C(C)(C)C)C3)c1 here?
The AC40 was 14.7 µM.

Which AC40 does the source give for Cc1cc(C)c(S(=O)(=O)NCCn2c(C)cc3ccccc32)c(C)c1 here?
Its AC40 is 14.3 µM.

With Cc1cccc(NC(=O)NCc2ccc3c(c2)cc(C)n3C)c1 as the compound, how does the AC40 read?
The AC40 was 12 µM.

With Cc1ccc(S(=O)(=O)NCc2ccc3c(c2)cc(C)n3C)cc1 as the compound, how does the AC40 read?
Its AC40 is 13.6 µM.

With Cc1cccc(-c2cc(N3CCCN(C)CC3)n3nccc3n2)c1 as the compound, how does the AC40 read?
The AC40 was 5.24 µM.

Which AC40 does the source give for COc1ccc(Nc2ccccc2N)cc1 here?
Its AC40 is 5.67 µM.

Which AC40 does the source give for O=C(C[C@@H]1CC[C@H]2[C@@H](COC[C@H](O)CN2C(=O)c2ccc(F)cc2)O1)Nc1ccc(-c2ccccc2)cc1 here?
The AC40 was 8 µM.

With Cc1cc2c(SCc3ccccc3Cl)nc(N)nc2nc1C as the compound, how does the AC40 read?
Its AC40 is 11.4 µM.

With Cc1cc2cc(CNC(=O)Nc3cccc(Cl)c3)ccc2n1C as the compound, how does the AC40 read?
The AC40 was 10.8 µM.

For CO[C@@H]1CN(C)C(=O)c2ccc(NC(=O)Nc3ccc(F)cc3)cc2OC[C@@H](C)N(C(=O)c2ccc(F)cc2)C[C@H]1C, which AC40 is on record?
Its AC40 is 12.4 µM.

With COc1ccc(NC(=O)N(C)C[C@H]2Oc3ccc(NS(=O)(=O)c4cccs4)cc3C(=O)N([C@H](C)CO)C[C@@H]2C)cc1 as the compound, how does the AC40 read?
The AC40 was 17.7 µM.

With COc1ccc(CNC(=O)c2cc3c(c(-c4cccc(-c5cccc(C#N)c5)c4)n2)[C@H](CCO)N([S@@](=O)C(C)(C)C)C3)cc1 as the compound, how does the AC40 read?
The AC40 was 19.4 µM.

For FC(F)(F)c1ccc2c(c1)N1CCCC1CN2 (configuration not stated), which AC40 is on record?
Its AC40 is 7.71 µM.

With Cc1cc2cc(CNC(=O)Nc3ccc(Cl)c(Cl)c3)ccc2n1C as the compound, how does the AC40 read?
The AC40 was 10.1 µM.

Which AC40 does the source give for Cc1cc2ccccc2n1CCNC(=O)COc1ccc2ccccc2c1 here?
Its AC40 is 11.3 µM.

For CC(C)(C)[S@](=O)N1Cc2cc(C(=O)N[C@H]3CCN(Cc4ccccc4)C3)nc(-c3cccc(-c4ccncc4)c3)c2[C@@H]1CCO, which AC40 is on record?
Its AC40 is 13.2 µM.

System: not listed separately
Test: as above
Settings: HUVEC E-selectin immunostaining, at 19.5 µM (top of the series), percent of TNF-alpha response over vehicle

For COc1ccc(S(=O)(=O)N(C)C[C@@H]2Oc3ccc(NC(=O)c4ccncc4)cc3C(=O)N([C@@H](C)CO)C[C@@H]2C)cc1, which activation is on record?
The activation was -0.183% (inactive).

With Cn1nc(C(=O)NNC(=O)c2ccccc2Br)c2ccccc2c1=O as the compound, how does the activation read?
The activation was -0.008% (inactive).

For CC(C)(C)c1ccc(NC(=O)N2CCCN(c3ccc([N+](=O)[O-])cn3)CC2)cc1, which activation is on record?
The activation was 0.154% (inactive).

Which activation does the source give for C[C@@H]1CN([C@@H](C)CO)C(=O)Cc2cc(NC(=O)Cn3cnnn3)ccc2O[C@H]1CN(C)Cc1ccc(Oc2ccccc2)cc1 here?
The activation was 0.416% (inactive).

For C[C@@H]1CN([C@H](C)CO)C(=O)c2cc(NC(=O)Cn3cnnn3)ccc2O[C@@H]1CN(C)S(=O)(=O)c1ccccc1, which activation is on record?
The activation was 0.017% (inactive).

For C[C@@H]1CN([C@H](C)CO)C(=O)c2cccc(NC(=O)Nc3ccc4c(c3)OCO4)c2O[C@@H]1CN(C)C(=O)Nc1ccc(C(F)(F)F)cc1, which activation is on record?
Its activation is 0.256% (inactive).

With COc1cccc(-c2cccc(-c3nc(C(=O)Nc4ccc(-c5ccccc5)cc4)cc4c3[C@@H](CCO)N(S(=O)C(C)(C)C)C4)c2)c1 (some centres not stated) as the compound, how does the activation read?
Its activation is 1.45% (inactive).

Which activation does the source give for COc1cccc(NC(=O)C2C3C=CC4(O3)C2C(=O)N(CCCN2CCCCC2)C4C(=O)NC2CCCCC2)c1 (configuration not stated) here?
The activation was 1.56% (inactive).

For COc1ccc(NC(=O)Nc2cccc3c2O[C@@H](CN(C)C(=O)NC2CCCCC2)[C@H](C)CN([C@H](C)CO)C3=O)cc1, which activation is on record?
Its activation is 0.507% (inactive).

With CCOC(=O)C1(Cc2ccccc2C)CCCN(C(=O)c2ccnn2C)C1 (configuration not stated) as the compound, how does the activation read?
The activation was -0.138% (inactive).
